In patent US20070043034A1, “Chlorine Ion Uptake Modulators and Uses Thereof” (priority 2005, published 2007):

Key:
KA-induced rat seizures = assay: Kainic acid (KA) induced seizures in rat pups, EEG recording in vivo; details: KA 2 mg/kg s.c.
From the text: Kainic Acid (KA) is a commonly used agent for creating an in vivo neonatal-like seizure model in rats for study. It is believed that this seizure model closely parallels human neonatal seizure disorders. KA, a glutamate receptor agonist, was used to induce neonatal-like seizures in postnatal (P) 7-12 day male Wistar rats. The rats were equipped with electrodes including recording and reference electrodes by standard means. There are many known methods for measuring parameters of seizures, in this example electrical signals were digitized using an analogue-to-digital converter for example a DigiData 1322A (Axon Instuments USA). The sampling interval can vary depending on the desired target interval. In this example, the sampling interval per signal was 200 […]s (5 kHz). For data analysis, several computer programs exist for capturing and analyzing these seizure parameters such as Clamp 9.2 (Axon Instruments, USA) and Origon 5.0 (Microcal Software, USA) used here. Interictal spikes were determined by typical means utilizing band-pass filtered raw data.
Many known methods exist for analyzing the power levels of different frequency components in a signal such as a signal recorded from a seizure episode. For example, power spectrum analysis can be performed after applying a Hamming window function. Unless otherwise indicated, power was calculated in 1-2 min time windows by integrating the root mean square value of the signal in frequency bands from 1 to 100 Hz (EEC band) and from 200 to 500 Hz (fast ripple band).
Pharmaceutical compositions of the present invention can be administered to seizure-induced rats to test the seizure modulatory properties of the pharmaceutical composition. In one exemplary method, the inhibition of NKCCl and its affect on seizures in rat pups was studied. Two days after implantation of recording electrodes, six P9-P10 rats received subcutaneous injection of KA (2 mg/kg) and six P9-10 control rats received subcutaneous 0.9% sodium chloride saline injections. 10-20 minutes after KA injection regular pattern of behavioral signs started, involving scratching-like movements of the hindpaws, loss of balance and turning on the side. Recurrent interictal and ictal electroencephalographic patterns occurred 20-80 minutes (61.2±10.4 min; mean±se) after KA injection in all rats from this experimental group (FIG. 4B). […] Interictal spikes usually occurred synchronously in the left and right hemispheres. Frequency of the interictal spikes was 1.43±0.06 Hz (n=23 seizures in 6 rats). Before transition to ictal patterns, interictal spikes were usually followed by fast ripple (100-500 Hz) and gamma-frequency oscillations (20-50 Hz). Tonic-clonic seizures were the most common type of seizures induced by KA in P9-10 rats. Ictal-tonic phase lasted 12.6±1.4 s (16 seizures in 5 rats). Population spikes of 18.7±1.2 Hz were characteristic of the tonic phase of KA-induced seizures (FIG. 4C). Tonic discharges were followed by clonic bursts (FIG. 4C). Large amplitude population spikes followed by 100-200 Hz ripples and 200-1200 ms gamma frequency after discharges characterized the clonic bursts. The mean duration of the clonic phase was 36.4±5 s (25 seizures in 6 rats). The ictal patterns were followed by postictal depression (FIG. 4 B-4C). During ictal EEG activity, motor activity consisted of scratching, jerky movements, turning on the side or on the back and frequent tail shaking. Five to ten recurrent seizures with an average interval 379±24.5 s were followed by periodic epileptiform discharges (PLEDs) (FIG. 4D).
In one exemplary experiment, a pharmaceutical composition of the present invention comprising bumetanide was compared to phenobarbital for effects on KA-induced rat seizures. Two days after implantation of recording electrodes, twenty-two P9-12 age-matched rats received subcutaneous injection with KA (2 mg/kg). […]

[1] = system: 8.5 mM potassium-induced epileptiform activity in hippocampal slices; assay: 8.5 mM K+ induced epileptiform activity in hippocampal slices in vitro; format: cell-based, rat; details: for decrease of averaged power of epileptiform activity: bumetanide 10 μM
From the text: In this example, the effects of phenobarbital on recurrent interictal and ictal-like epileptiform activity in the hippocampal slices in vitro from P7-12 rats were studied. Interictal and ictal-like epileptiform activity are typical parameters studied when analyzing seizure activity in control and treated subjects. Phenobarbital exerts its pharmacological effects by allosteric activation of the GABAA receptor, increasing the duration of chloride ion channel opening, without affecting the frequency of opening or channel conductance. Simultaneous multi-site extracellular field potential records were performed in the CA3 pyramidal cell layer. To induce progressive neuronal firing, a bath application of 8.5 mM K+ was applied to the sections that developed to recurrent interictal and ictal-like epileptiform activities (FIG. 2A-2D). […] The power of extracellular field potential during 8.5 mM K+ (potassium) induced epileptiform activity in 0.1-1000 Hz frequency band, that include both gamma and fast ripple oscillations (FIG. 2A-2D).
In one exemplary method, experimental procedures were carried out on hippocampal slices of postnatal days 5 (P5) to P12 male Wistar rats. Animals were anaesthetized and decapitated and hippocampal slices were prepared by known methods. For example, hippocampal transverse slices were cut using Leica VT-100E vibratome (Leica Microsystems Nussloch GmbH, Germany) and kept in oxygenated aCSF at room temperature at least 1 hr before use. Hippocampal slices posterior to the midtemporal (caudal) part of the hippocampus (Paxinos and Watson, 1986) were used in the study.
In one example, electrophysiological recordings are gathered from individual slices and subsequently transferred to a conventional submerged-type chamber and continuously superfused with, for example, oxygenated aCSF. Whole-cell recordings were generated. Patch electrodes were used, made by known methods. For whole-cell recording in voltage-clamp mode pipettes were filled with a buffered solution.
From the example outlined above, extracellular field potentials were recorded and microelectrodes known in the art were used for simultaneous recordings of multiple unit activity (e.g. MUA; 500 Hz high-pass filter), population field activity in EEG band (1-100 Hz), and fast ripple oscillations (200-600 Hz).).
In one experimental example, bumetanide was tested for suppression of a 8.5 mM potassium-induced epileptiform activity in hippocampal slices from P7-9 and PI0-12 rats. […] Averaged power of epileptiform activity was decreased by 71±2.1% (n=9, p=1.57E-12) in P7-9 rat hippocampal slices and by 41.9±1.5% (n=6, p=2.13E-11) at P10-P12 (FIG. 3C).
In another aspect of this example, pharmaceutical compositions of the present invention may be tested for effects on the GABAA receptor using for example a GABAA-R antagonist before, during or after treatment with the pharmaceutical composition. In one example, GABAA receptor antagonists prevented the effect of bumetanide on power of epileptiform activity in the hippocampal slices from neonatal rats (FIGS. 3B and 3D). […] Here, an inhibition of synchronous network activity by bumetanide treatment in the perinatal hippocampal slices in this in vitro experiment was observed and these affects were partially reversed after treatment with bicuculline.

[2] = P9-12 rats, phenobarbital 25 mg/kg or bumetanide 0.1-0.2 mg/kg i.p.

`CCCCNc1cc(C(=O)O)cc(S(N)(=O)=O)c1Oc1ccccc1` [bumetanide, 3-(aminosulfonyl)-5-(butylamino)-4-phenoxybenzoic acid] was tested, and the periodic epileptiform discharges (KA-induced rat seizures; bumetanide 0.1-0.2 mg/kg i.p.) was “occurred in all six rats”, the “animals with recurrent ictal-clonic activity / EEG clonic seizures” value (KA-induced rat seizures; P9-12 rats, drug i.p. 10 min after KA (phenobarbital 25 mg/kg; bumetanide 0.1-0.2 mg/kg), 6 rats per group) was 50% and the “duration of ictal-clonic phase” value (KA-induced rat seizures; [2]) was 12.5 ± 1.1 s. For the same compound, the “duration of ictal-tonic phase” value (KA-induced rat seizures; [2]) was 9 ± 1.9 s, the “frequency of interictal spikes” value (KA-induced rat seizures; [2]) was 1.42 ± 0.07 Hz and the “mean duration of single ictal episode (seizure including interictal and ictal phases)” value (KA-induced rat seizures; [2]) was 32 ± 3.9 s. The “mean interval between seizures” value (KA-induced rat seizures; [2]) was 360.1 ± 68.6 s, the “rats with ictal-tonic pattern / tonic-clonic seizures” value (KA-induced rat seizures; [2]) was 16.7% and the “increase of power of EEG activity in the 20 minute window following seizure onset” value (KA-induced rat seizures; compared to pre-ictal baseline, phenobarbital 25 mg/kg or bumetanide 0.1-0.2 mg/kg i.p., saline control 444.7±136.3%) was 88.7±24.5%. For the same compound, the “decrease of averaged power of epileptiform activity” value ([1]; P7-9 rat hippocampal slices, n=9) was 71±2.1%, the “decrease of averaged power of epileptiform activity” value ([1]; P10-P12 rat hippocampal slices, n=6) was 41.9±1.5% and the “increase of IED frequency” value ([1]; bumetanide 10 μM in the presence of bicuculline 10 μM, P7-9 slices, n=6, p=0.008) was 22.8 ± 6.4%. The “decrease of IED length” value ([1]; bumetanide 10 μM in the presence of bicuculline 10 μM, P7-9 slices, p=0.8) was 2.2±8%, the “averaged power of epileptiform discharges” value ([1]; bumetanide 10 μM in the presence of bicuculline 10 μM, p=0.35) was “did not change” and the “effect on epileptiform activity” value ([1]; hippocampal slices from P7-9 rats, bath application phenobarbital 100 μM (n=6) or bumetanide 10 μM (n=10)) was “strongly suppressed interictal and ictal-like epileptiform activity”. For the same compound, the “effect on epileptiform activity” value ([1]; hippocampal slices from P10-12 rats, bath application phenobarbital 100 μM (n=7) or bumetanide 10 μM (n=6)) was “depressed ictal-like epileptiform activity”.
